Assay results from the supplement of paper PMC10307832.

How the values were obtained:
Test in all cases: relative viability (nuclei count vs DMSO), 5 days (fraction); higher = more cells survive
[1] = compound: Cn1nnc2c(C(N)=O)ncn2c1=O [Temozolomide] + CS(=O)(=O)N1CCN(Cc2cc3nc(-c4cccc5[nH]ncc45)nc(N4CCOCC4)c3s2)CC1 [Pictilisib] (partner 1 µM)
In short: (§1)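 Relative viability is defined as nuclei in treated wells over nuclei in vehicle wells. Duplicate plates were run and medians reported. Lung cancer cell lines in 1536-well plates were dosed by pin tool one day after seeding, with one drug or with a fixed anchor-drug dose plus five library-drug doses (not always all listed) in √10 steps, and nuclei were counted after 5 days.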

AZD5582 + Trametinib = compound: C[C@@H](C(=O)N[C@@H](C1CCCCC1)C(=O)N2CCC[C@H]2C(=O)N[C@@H]3[C@@H](CC4=CC=CC=C34)OCC#CC#CCO[C@@H]5CC6=CC=CC=C6[C@@H]5NC(=O)[C@@H]7CCCN7C(=O)[C@H](C8CCCCC8)NC(=O)[C@H](C)NC)NC [AZD5582] + CC(=O)Nc1cccc(-n2c(=O)n(C3CC3)c(=O)c3c(Nc4ccc(I)cc4F)n(C)c(=O)c(C)c32)c1 [Trametinib] (partner 0.02 µM)
In short: as §1

AZD5582 + Luminespib = compound: C[C@@H](C(=O)N[C@@H](C1CCCCC1)C(=O)N2CCC[C@H]2C(=O)N[C@@H]3[C@@H](CC4=CC=CC=C34)OCC#CC#CCO[C@@H]5CC6=CC=CC=C6[C@@H]5NC(=O)[C@@H]7CCCN7C(=O)[C@H](C8CCCCC8)NC(=O)[C@H](C)NC)NC [AZD5582] + CCNC(=O)c1noc(-c2cc(C(C)C)c(O)cc2O)c1-c1ccc(CN2CCOCC2)cc1 [Luminespib] (partner 0.01 µM)
In short: as §1

Temozolomide + Olaparib = compound: Cn1nnc2c(C(N)=O)ncn2c1=O [Temozolomide] + O=C(c1cc(Cc2n[nH]c(=O)c3ccccc23)ccc1F)N1CCN(C(=O)C2CC2)CC1 [Olaparib] (partner 8 µM)
In short: as §1

Cell Line	relative viability ([1]; first compound 0.2 µM)	relative viability ([1]; first compound 0.6325 µM)	relative viability ([1]; first compound 2 µM)	relative viability ([1]; first compound 6.325 µM)	relative viability ([1]; first compound 20 µM)	relative viability (AZD5582 + Trametinib; first compound 0.001581 µM)	relative viability (AZD5582 + Trametinib; first compound 0.005 µM)	relative viability (AZD5582 + Trametinib; first compound 0.01581 µM)	relative viability (AZD5582 + Trametinib; first compound 0.05 µM)	relative viability (AZD5582 + Luminespib; first compound 0.001581 µM)	relative viability (AZD5582 + Luminespib; first compound 0.005 µM)	relative viability (AZD5582 + Luminespib; first compound 0.01581 µM)	relative viability (AZD5582 + Luminespib; first compound 0.05 µM)	relative viability (Temozolomide + Olaparib; first compound 0.2 µM)	relative viability (Temozolomide + Olaparib; first compound 0.6325 µM)	relative viability (Temozolomide + Olaparib; first compound 2 µM)	relative viability (Temozolomide + Olaparib; first compound 6.325 µM)	relative viability (Temozolomide + Olaparib; first compound 20 µM)
201T	0.683	0.731	0.735	0.69	0.641	0.786	0.842	0.719	0.847	1.11	1.17	0.99	1.23	0.843	0.891	0.884	0.809	0.742
A549	0.61	0.471	0.525	0.507	0.504	–	–	–	–	–	–	–	–	0.358	0.344	0.345	0.17	0.117
A-427	0.816	0.733	0.797	0.417	0.329	0.568	0.608	0.71	0.566	0.665	0.845	0.906	0.897	0.681	0.729	0.672	0.47	0.325
ABC-1	0.726	0.8	0.881	0.609	0.53	–	–	–	–	0.518	0.243	–	0.369	0.921	0.673	1.09	0.85	0.696
BEN	0.467	0.629	0.657	0.552	0.484	0.893	1.13	1.05	1.2	0.332	0.325	0.634	0.392	0.891	1.05	1.21	0.736	0.401
CAL-12T	–	0.434	0.425	0.334	0.391	0.31	0.34	0.291	0.216	0.192	0.298	0.401	0.326	0.865	0.754	0.775	0.697	0.606
COR-L23	1.01	0.771	0.961	0.829	0.715	0.485	0.75	0.584	0.523	0.635	0.739	0.65	0.926	0.374	0.377	0.318	0.257	0.189
COR-L 105	0.408	0.366	0.433	0.39	0.273	0.445	0.517	0.427	0.539	0.619	0.728	0.837	0.862	0.585	0.577	0.636	0.661	0.693
Calu-6	1.21	0.939	0.883	0.867	0.974	–	–	–	–	–	–	–	–	0.787	0.603	0.6	0.484	0.259
ChaGo-K-1	0.784	0.904	1.02	0.635	0.581	0.897	0.883	0.886	0.936	0.518	0.691	0.518	0.633	0.437	0.417	0.4	0.315	0.228
EBC-1	0.493	0.358	0.388	0.387	0.416	–	–	–	–	–	–	–	–	0.765	0.663	0.795	0.666	0.5
EKVX	0.23	0.38	0.391	0.379	0.273	0.276	0.405	0.289	0.376	0.859	0.972	0.787	0.803	–	0.735	0.79	0.79	0.479
EMC-BAC-2	0.535	0.596	0.587	0.497	0.495	0.757	0.841	0.737	0.797	1.06	0.922	1.19	0.721	0.667	0.504	0.455	0.367	0.271
EPLC-272H	0.356	0.35	0.334	0.298	0.326	0.15	–	0.292	0.0966	0.24	–	0.205	0.381	1.13	0.739	0.833	0.914	0.49
H3255	–	0.539	0.422	0.38	0.0897	0.58	0.667	0.557	0.524	0.731	0.956	0.653	0.824	–	0.554	0.565	0.477	0.345
HARA	0.376	0.484	0.603	0.438	0.256	0.464	0.719	0.747	0.976	0.39	0.727	0.733	1.21	0.9	1.19	0.844	1.01	0.444
HCC-15	0.818	0.82	0.737	0.693	0.786	0.328	0.39	0.332	0.365	0.264	0.323	0.278	0.301	0.791	0.767	0.684	0.637	0.589
HCC-44	0.599	0.611	0.69	0.566	0.534	0.883	0.967	1.02	0.878	0.921	1.12	0.96	1.2	0.975	1.02	0.949	1.02	0.854
HCC-78	0.26	0.221	0.211	0.21	0.193	0.735	0.813	0.712	0.534	–	–	–	–	0.676	0.778	0.855	–	0.471
